These results are taken from paper PMC7382241, “Genomic discovery of an evolutionarily programmed modality for small-molecule targeting of an intractable protein surface” (Proceedings of the National Academy of Sciences of the …, 2020).

The structures appear in SMILES notation.

This experiment deals with T1, FKBP12 (Homo sapiens, UniProt P62942).
T1 construct: gene FKBP1A; AVI-tagged FKBP12, E. coli BL21(DE3)pLysS, immobilized on NTA sensor chip
Type of experiment: binding. The note with it: 25 °C; binary complex.

T1 sequence (P62942 2-108): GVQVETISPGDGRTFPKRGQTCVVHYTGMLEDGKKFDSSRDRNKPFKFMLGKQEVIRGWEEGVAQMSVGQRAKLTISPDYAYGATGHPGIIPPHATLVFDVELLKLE

For the compound `C=CC[C@@H]1/C=C(\C)C[C@H](C)C[C@H](OC)[C@H]2O[C@@](O)(C(=O)C(=O)N3CCCC[C@H]3C(=O)O[C@H](/C(C)=C/[C@@H]3CC[C@@H](O)[C@H](OC)C3)[C@H](C)[C@@H](O)CC1=O)[C@H](C)C[C@@H]2OC` [FK506], the KD entry was “KD measurements by SPR for WDB001, WDB002, WDB003, WDB011, rapamycin, and FK506”.
